Measurements reported in ChEMBL document CHEMBL4837183, “Antiproliferative Bufadienolides from the Bulbs of Drimia altissima” (2021).

Experiments:
Format in all cases: functional
[1] = system: LOX IMVI; assay: Growth inhibition of human LOX IMVI cells measured after 48 hrs by SRB assay
[2] = system: 786-0; assay: Growth inhibition of human 786-0 cells measured after 48 hrs by SRB assay
[3] = system: NCI-H460; assay: Growth inhibition of human NCI-H460 cells measured after 48 hrs by SRB assay
[4] = system: MOLT-4; assay: Growth inhibition of human MOLT-4 cells measured after 48 hrs by SRB assay
[5] = system: NCI-H522; assay: Growth inhibition of human NCI-H522 cells measured after 48 hrs by SRB assay
[6] = system: SK-MEL-5; assay: Growth inhibition of human SK-MEL-5 cells measured after 48 hrs by SRB assay
[7] = system: NCI-H322M; assay: Growth inhibition of human NCI-H322M cells measured after 48 hrs by SRB assay
[8] = system: UO-31; assay: Growth inhibition of human UO-31 cells measured after 48 hrs by SRB assay
[9] = system: OVCAR-3; assay: Growth inhibition of human OVCAR-3 cells measured after 48 hrs by SRB assay
[10] = system: SK-MEL-28; assay: Growth inhibition of human SK-MEL-28 cells measured after 48 hrs by SRB assay
[11] = system: CAKI-1; assay: Growth inhibition of human CAKI-1 cells measured after 48 hrs by SRB assay
[12] = system: UACC-257; assay: Growth inhibition of human UACC-257 cells measured after 48 hrs by SRB assay
[13] = system: TK-10; assay: Growth inhibition of human TK-10 cells measured after 48 hrs by SRB assay
[14] = system: Hs-578T; assay: Growth inhibition of human Hs-578T cells measured after 48 hrs by SRB assay
[15] = system: RXF 393; assay: Growth inhibition of human RXF 393 cells measured after 48 hrs by SRB assay
[16] = system: CCRF-CEM; assay: Growth inhibition of human CCRF-CEM cells measured after 48 hrs by SRB assay
[17] = system: OVCAR-5; assay: Growth inhibition of human OVCAR-5 cells measured after 48 hrs by SRB assay
[18] = system: HCC 2998; assay: Growth inhibition of human HCC 2998 cells measured after 48 hrs by SRB assay
[19] = system: MDA-MB-435; assay: Growth inhibition of human MDA-MB-435 cells measured after 48 hrs by SRB assay
[20] = system: SF-295; assay: Growth inhibition of human SF-295 cells measured after 48 hrs by SRB assay
[21] = system: ACHN; assay: Growth inhibition of human ACHN cells measured after 48 hrs by SRB assay
[22] = system: DU-145; assay: Growth inhibition of human DU-145 cells measured after 48 hrs by SRB assay
[23] = system: MDA-MB-468; assay: Growth inhibition of human MDA-MB-468 cells measured after 48 hrs by SRB assay
[24] = system: SR; assay: Growth inhibition of human SR cells measured after 48 hrs by SRB assay
[25] = system: HOP-92; assay: Growth inhibition of human HOP-92 cells measured after 48 hrs by SRB assay
[26] = system: T47D; assay: Growth inhibition of human T47D cells measured after 48 hrs by SRB assay
[27] = system: SK-OV-3; assay: Growth inhibition of human SK-OV-3 cells measured after 48 hrs by SRB assay
[28] = system: HT-29; assay: Growth inhibition of human HT-29 cells measured after 48 hrs by SRB assay
[29] = system: SN12C; assay: Growth inhibition of human SN12C cells measured after 48 hrs by SRB assay
[30] = system: NCI-H23; assay: Growth inhibition of human NCI-H23 cells measured after 48 hrs by SRB assay
[31] = system: HOP-62; assay: Growth inhibition of human HOP-62 cells measured after 48 hrs by SRB assay
[32] = system: A549; assay: Growth inhibition of human A549 cells measured after 48 hrs by SRB assay
[33] = system: SNB-19; assay: Growth inhibition of human SNB-19 cells measured after 48 hrs by SRB assay
[34] = system: HCT-15; assay: Growth inhibition of human HCT-15 cells measured after 48 hrs by SRB assay
[35] = system: SK-MEL-2; assay: Growth inhibition of human SK-MEL-2 cells measured after 48 hrs by SRB assay
[36] = system: SW-620; assay: Growth inhibition of human SW-620 cells measured after 48 hrs by SRB assay
[37] = system: NCI-H226; assay: Growth inhibition of human NCI-H226 cells measured after 48 hrs by SRB assay
[38] = system: SF-539; assay: Growth inhibition of human SF-539 cells measured after 48 hrs by SRB assay
[39] = system: PC-3; assay: Growth inhibition of human PC-3 cells measured after 48 hrs by SRB assay
[40] = system: COLO 205; assay: Growth inhibition of human COLO 205 cells measured after 48 hrs by SRB assay
[41] = system: M14; assay: Growth inhibition of human M14 cells measured after 48 hrs by SRB assay
[42] = system: SF-268; assay: Growth inhibition of human SF-268 cells measured after 48 hrs by SRB assay
[43] = system: HL-60; assay: Growth inhibition of human HL-60 cells measured after 48 hrs by SRB assay
[44] = system: K562; assay: Growth inhibition of human K562 cells measured after 48 hrs by SRB assay
[45] = system: SNB-75; assay: Growth inhibition of human SNB-75 cells measured after 48 hrs by SRB assay
[46] = system: NCI/ADR-RES; assay: Growth inhibition of human NCI/ADR-RES cells measured after 48 hrs by SRB assay
[47] = system: Malme-3M; assay: Growth inhibition of human Malme-3M cells measured after 48 hrs by SRB assay
[48] = system: MCF7; assay: Growth inhibition of human MCF7 cells measured after 48 hrs by SRB assay
[49] = system: OVCAR-8; assay: Growth inhibition of human OVCAR-8 cells measured after 48 hrs by SRB assay
[50] = system: UACC-62; assay: Growth inhibition of human UACC-62 cells measured after 48 hrs by SRB assay
[51] = system: A498; assay: Growth inhibition of human A498 cells measured after 48 hrs by SRB assay
[52] = system: BT-549; assay: Growth inhibition of human BT-549 cells measured after 48 hrs by SRB assay
[53] = system: MDA-MB-231; assay: Growth inhibition of human MDA-MB-231 cells measured after 48 hrs by SRB assay
[54] = system: KM12; assay: Growth inhibition of human KM12 cells measured after 48 hrs by SRB assay
[55] = system: U-251; assay: Growth inhibition of human U-251 cells measured after 48 hrs by SRB assay
[56] = system: IGROV-1; assay: Growth inhibition of human IGROV-1 cells measured after 48 hrs by SRB assay
[57] = system: HCT-116; assay: Growth inhibition of human HCT-116 cells measured after 48 hrs by SRB assay

## CC(=O)OC[C@H]1O[C@@H](O[C@@H]2C=C3CC[C@@H]4[C@H]([C@@H](O)C[C@]5(C)[C@@H](c6ccc(=O)oc6)CC[C@]45O)[C@@]3(C)CC2)[C@H](OC(C)=O)[C@@H](OC(C)=O)[C@@H]1OC(C)=O
[1]
  GI50: 314 nM
[2]
  GI50: 102 nM
[3]
  GI50: 65 nM
[4]
  GI50: 88 nM
[5]
  GI50: 70 nM
[6]
  GI50: 95 nM
[7]
  GI50: 114 nM
[8]
  GI50: 92 nM
[9]
  GI50: 92 nM
[10]
  GI50: 273 nM
[11]
  GI50: 98 nM
[12]
  GI50: 376 nM
[13]
  GI50: 128 nM
[14]
  GI50: 91 nM
[15]
  GI50: 41 nM
[16]
  GI50: 110 nM
[17]
  GI50: 381 nM
[18]
  GI50: 677 nM
[19]
  GI50: 290 nM
[20]
  GI50: 129 nM
[21]
  GI50: 56 nM
[22]
  GI50: 109 nM
[23]
  GI50: 642 nM
[24]
  GI50: 285 nM
[25]
  GI50: 286 nM
[26]
  GI50: 338 nM
[27]
  GI50: 322 nM
[28]
  GI50: 321 nM
[29]
  GI50: 65 nM
[30]
  GI50: 181 nM
[31]
  GI50: 105 nM
[32]
  GI50: 75 nM
[33]
  GI50: 421 nM
[34]
  GI50: 225 nM
[35]
  GI50: 362 nM
[36]
  GI50: 114 nM
[37]
  GI50: 264 nM
[38]
  GI50: 77 nM
[39]
  GI50: 247 nM
[40]
  GI50: 629 nM
[41]
  GI50: 416 nM
[42]
  GI50: 109 nM
[43]
  GI50: 140 nM
[44]
  GI50: 386 nM
[45]
  GI50: 302 nM
[46]
  GI50: 283 nM
[47]
  GI50: 105 nM
[48]
  GI50: 103 nM
[49]
  GI50: 246 nM
[50]
  GI50: 155 nM
[51]
  GI50: 64 nM
[52]
  GI50: 93 nM
[53]
  GI50: 812 nM
[54]
  GI50: 597 nM
[55]
  GI50: 295 nM
[56]
  GI50: 111 nM
[57]
  GI50: 75 nM

## CCO[C@@H]1C=C2CC[C@@H]3[C@H]([C@@H](O)C[C@]4(C)[C@@H](c5ccc(=O)oc5)CC[C@]34O)[C@@]2(C)CC1
[1]
  GI50: 137 nM
[2]
  GI50: 71 nM
[3]
  GI50: 39 nM
[4]
  GI50: 42 nM
[5]
  GI50: 35 nM
[6]
  GI50: 72 nM
[7]
  GI50: 121 nM
[8]
  GI50: 54 nM
[9]
  GI50: 59 nM
[10]
  GI50: 296 nM
[11]
  GI50: 57 nM
[12]
  GI50: 268 nM
[13]
  GI50: 94 nM
[14]
  GI50: 44 nM
[15]
  GI50: 25 nM
[16]
  GI50: 54 nM
[17]
  GI50: 280 nM
[18]
  GI50: 537 nM
[19]
  GI50: 178 nM
[20]
  GI50: 61 nM
[21]
  GI50: 37 nM
[22]
  GI50: 52 nM
[23]
  GI50: 501 nM
[24]
  GI50: 124 nM
[25]
  GI50: 153 nM
[26]
  GI50: 255 nM
[27]
  GI50: 338 nM
[28]
  GI50: 78 nM
[29]
  GI50: 46 nM
[30]
  GI50: 86 nM
[31]
  GI50: 56 nM
[32]
  GI50: 40 nM
[33]
  GI50: 347 nM
[34]
  GI50: 86 nM
[35]
  GI50: 234 nM
[36]
  GI50: 63 nM
[37]
  GI50: 181 nM
[38]
  GI50: 66 nM
[39]
  GI50: 145 nM
[40]
  GI50: 401 nM
[41]
  GI50: 232 nM
[42]
  GI50: 58 nM
[43]
  GI50: 120 nM
[44]
  GI50: 129 nM
[45]
  GI50: 187 nM
[46]
  GI50: 91 nM
[47]
  GI50: 145 nM
[48]
  GI50: 55 nM
[49]
  GI50: 165 nM
[50]
  GI50: 145 nM
[51]
  GI50: 39 nM
[52]
  GI50: 56 nM
[53]
  GI50: 588 nM
[54]
  GI50: 349 nM
[55]
  GI50: 151 nM
[56]
  GI50: 138 nM
[57]
  GI50: 39 nM
